Target: T1, human TLR8 (Homo sapiens, UniProt Q9NR97)
T1 sequence (Q9NR97 27-1041): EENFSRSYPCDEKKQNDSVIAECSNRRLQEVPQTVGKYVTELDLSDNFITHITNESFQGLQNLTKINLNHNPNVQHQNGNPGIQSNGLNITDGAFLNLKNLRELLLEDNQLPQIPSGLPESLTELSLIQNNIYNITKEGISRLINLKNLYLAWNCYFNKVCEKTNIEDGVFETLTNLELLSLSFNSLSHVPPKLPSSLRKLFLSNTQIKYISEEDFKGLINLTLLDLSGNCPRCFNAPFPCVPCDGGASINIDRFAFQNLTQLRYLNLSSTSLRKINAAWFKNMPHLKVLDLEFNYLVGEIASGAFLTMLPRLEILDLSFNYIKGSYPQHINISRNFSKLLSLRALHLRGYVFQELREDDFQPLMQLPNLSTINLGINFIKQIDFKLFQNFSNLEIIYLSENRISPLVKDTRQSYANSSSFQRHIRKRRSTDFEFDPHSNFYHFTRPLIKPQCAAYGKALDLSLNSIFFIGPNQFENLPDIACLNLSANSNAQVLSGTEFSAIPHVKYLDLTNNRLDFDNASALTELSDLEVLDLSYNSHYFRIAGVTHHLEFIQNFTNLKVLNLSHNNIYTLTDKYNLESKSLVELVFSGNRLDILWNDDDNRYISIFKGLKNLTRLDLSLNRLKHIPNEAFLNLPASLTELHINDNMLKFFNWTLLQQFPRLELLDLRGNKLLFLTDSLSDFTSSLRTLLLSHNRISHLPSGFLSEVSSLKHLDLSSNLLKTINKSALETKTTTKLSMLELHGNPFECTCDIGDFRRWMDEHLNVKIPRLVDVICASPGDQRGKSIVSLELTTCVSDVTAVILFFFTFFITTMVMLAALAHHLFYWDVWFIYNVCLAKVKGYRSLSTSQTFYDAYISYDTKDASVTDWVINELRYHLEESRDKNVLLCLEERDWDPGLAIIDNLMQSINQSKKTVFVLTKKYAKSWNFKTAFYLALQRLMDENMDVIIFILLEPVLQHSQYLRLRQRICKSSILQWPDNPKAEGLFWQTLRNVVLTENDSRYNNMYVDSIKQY
Assay: HEK293-Blue-hTLR-8 cells assay (SEAP reporter, R848 stimulation)
Assay type: cell-based
Settings: HEK293-Blue-hTLR8 cells, R848 ligand, 20 hrs; read-out: HEK/hTLR8 IC50
Method: The following tests were carried out in order to determine the activity of the compounds of formula (I), (Ia) or (Ib) in HEK293-Blue-hTLR-7/8/9 cells assay.
HEK293-Blue-hTLR-8 Cells Assay:
A stable HEK293-Blue-hTLR-8 cell line was purchased from InvivoGen (Cat. #: hkb-htlr8, San Diego, California, USA). These cells were originally designed for studying the stimulation of human TLR8 by monitoring the activation of NF-κB. A SEAP (secreted embryonic alkaline phosphatase) reporter gene was placed under the control of the IFN-β minimal promoter fused to five NF-κB and AP-1-binding sites. The SEAP was induced by activating NF-κB and AP-1 via stimulating HEK-Blue hTLR8 cells with TLR8 ligands. Therefore the reporter expression was declined by TLR8 antagonist under the stimulation of a ligand, such as R848, for incubation of 20 hrs. The cell culture supernatant SEAP reporter activity was determined using QUANTI-Blue™ kit (Cat. #: rep-qb1, Invivogen, San Diego, Ca., USA) at a wavelength of 640 nm, a detection medium that turns purple or blue in the presence of alkaline phosphatase.
HEK293-Blue-hTLR8 cells were incubated at a density of 250,000˜450,000 cells/mL in a volume of 170 μL in a 96-well plate in Dulbecco's Modified Eagle's medium (DMEM) containing 4.5 g/L glucose, 50 U/mL penicillin, […], […], 2 mM L-glutamine, 10% (v/v) heat-inactivated fetal bovine serum with addition of 20 μL test compound in a serial dilution in the presence of final DMSO at 1% and 10 μL of 60 uM R848 in above DMEM, perform incubation under 37° C. in a CO2 incubator for 20 hrs. Then 20 μL of the supernatant from each well was incubated with 180 μL Quanti-blue substrate solution at 37° C. for 2 hrs and the absorbance was read at 620-655 nm using a spectrophotometer. The signaling pathway that TLR8 activation leads to downstream NF-κB activation has been widely accepted, and therefore similar reporter assay was modified for evaluating TLR8 antagonist.

Compound | IC50 [nM]
C[C@@H]1CN(c2ccc(C#N)c3ncccc23)C[C@@H]2CCN(c3cncc4c3CCNC4)CCN21 [Example 4, 5-[(4R,10aS)-4-methyl-8-(5,6,7,8-tetrahydro-2,7-naphthyridin-4-yl)-1,3,4,6,7,9,10,10a-octahydropyrazino[1,2-d][1,4]diazepin-2-yl]quinoline-8-carbonitrile] | 2.4
C[C@@H]1CN(c2ccc(C#N)c3ncccc23)C[C@@H]2CCN(Cc3cc4c(cn3)CNCC4)CCN21 [Example 8, 5-[(4R,10aS)-4-methyl-8-(5,6,7,8-tetrahydro-2,7-naphthyridin-3-ylmethyl)-1,3,4,6,7,9,10,10a-octahydropyrazino[1,2-d][1,4]diazepin-2-yl]quinoline-8-carbonitrile] | 8.6
C[C@@H]1CN(c2ccc(C#N)c3ncccc23)C[C@@H]2CCN(Cc3cnc(N4CCNCC4)cn3)CCN21 [Example 15, 5-[(4R,10aS)-4-methyl-8-[(5-piperazin-1-ylpyrazin-2-yl)methyl]-1,3,4,6,7,9,10,10a-octahydropyrazino[1,2-d][1,4]diazepin-2-yl]quinoline-8-carbonitrile] | 8.6
C[C@@H]1CN(c2ccc(C#N)c3ncccc23)C[C@@H]2CCN(c3ccc4c(n3)CNCC4)CCN21 [Example 5, 5-[(4R,10aS)-4-methyl-8-(5,6,7,8-tetrahydro-1,7-naphthyridin-2-yl)-1,3,4,6,7,9,10,10a-octahydropyrazino[1,2-d][1,4]diazepin-2-yl]quinoline-8-carbonitrile] | 3.9
C[C@@H]1CN(c2ccc(C#N)c3ncccc23)C[C@@H]2CCN(Cc3ncc(N4CCNCC4)cc3F)CCN21 [Example 23, 5-[(4R,10aS)-8-[(3-fluoro-5-piperazin-1-yl-2-pyridyl)methyl]-4-methyl-1,3,4,6,7,9,10,10a-octahydropyrazino[1,2-d][1,4]diazepin-2-yl]quinoline-8-carbonitrile] | 8.3
C[C@@H]1CN(c2ccc(C#N)c3ncccc23)C[C@@H]2CCN(Cc3cncc(N4CCNCC4)c3)CCN21 [Example 16, 5-[(4R,10aS)-4-methyl-8-[(5-piperazin-1-yl-3-pyridyl)methyl]-1,3,4,6,7,9,10,10a-octahydropyrazino[1,2-d][1,4]diazepin-2-yl]quinoline-8-carbonitrile] | 12.1
C[C@@H]1CN(c2ccc(C#N)c3ncccc23)C[C@@H]2CCN(Cc3ccc(N4CCNCC4)nc3)CCN21 [Example 17, 5-[(4R,10aS)-4-methyl-8-[(6-piperazin-1-yl-3-pyridyl)methyl]-1,3,4,6,7,9,10,10a-octahydropyrazino[1,2-d][1,4]diazepin-2-yl]quinoline-8-carbonitrile] | 3.4
C[C@@H]1CN(c2cc(=O)n(C)c3ncccc23)C[C@@H]2CCN(Cc3ccc4c(c3)CNCC4)CCN21 [Example 28, 4-[(4R,10aS)-4-methyl-8-(1,2,3,4-tetrahydroisoquinolin-7-ylmethyl)-1,3,4,6,7,9,10,10a-octahydropyrazino[1,2-d][1,4]diazepin-2-yl]-1-methyl-1,8-naphthyridin-2-one] | 51.1
C[C@@H]1CN(c2ccc(C#N)c3ncccc23)C[C@@H]2CCN(Cc3cnc(N4CCNCC4)nc3)CCN21 [Example 14, 5-[(4R,10aS)-4-methyl-8-[(2-piperazin-1-ylpyrimidin-5-yl)methyl]-1,3,4,6,7,9,10,10a-octahydropyrazino[1,2-d][1,4]diazepin-2-yl]quinoline-8-carbonitrile] | 4.9
C[C@@H]1CN(c2ccc(C#N)c3ncccc23)C[C@@H]2CCN(c3ccc([C@H]4CNCCO4)cc3)CCN21 [Example 3, 5-[(4R,10aS)-4-methyl-8-[4-[(2S)-morpholin-2-yl]phenyl]-1,3,4,6,7,9,10,10a-octahydropyrazino[1,2-d][1,4]diazepin-2-yl]quinoline-8-carbonitrile] | 4.8
C[C@@H]1CN(c2ccc(C#N)c3ncccc23)C[C@@H]2CCN(Cc3ccc4c(c3)CCNC4)CCN21 [Example 11, 5-[(4R,10aS)-4-methyl-8-(1,2,3,4-tetrahydroisoquinolin-6-ylmethyl)-1,3,4,6,7,9,10,10a-octahydropyrazino[1,2-d][1,4]diazepin-2-yl]quinoline-8-carbonitrile] | 4.2

Now from value to molecule:

IC50 [nM] | Compound
5.2 | C[C@@H]1CN(c2ccc(C#N)c3ncccc23)C[C@@H]2CCN(Cc3cnc4c(c3)CNCC4)CCN21 [Example 10, 5-[(4R,10aS)-4-methyl-8-(5,6,7,8-tetrahydro-1,6-naphthyridin-3-ylmethyl)-1,3,4,6,7,9,10,10a-octahydropyrazino[1,2-d][1,4]diazepin-2-yl]quinoline-8-carbonitrile]
11 | C[C@@H]1CN(c2ccc(C#N)c3ncccc23)C[C@@H]2CCN(Cc3ccc(N4C[C@@H](N)[C@@H](F)C4)cn3)CCN21 [Example 20, 5-[(4R,10aS)-8-[[5-[(3R,4S)-3-amino-4-fluoro-pyrrolidin-1-yl]-2-pyridyl]methyl]-4-methyl-1,3,4,6,7,9,10,10a-octahydropyrazino[1,2-d][1,4]diazepin-2-yl]quinoline-8-carbonitrile]
85.7 | CO[C@@H]1CN(c2cnc(CN3CC[C@H]4CN(c5ccc(C#N)n6nccc56)C[C@@H](C)N4CC3)c(F)c2)C[C@H]1N [Example 26, 4-[(4R,10aS)-8-[[5-[(3R,4R)-3-amino-4-methoxy-pyrrolidin-1-yl]-3-fluoro-2-pyridyl]methyl]-4-methyl-1,3,4,6,7,9,10,10a-octahydropyrazino[1,2-d][1,4]diazepin-2-yl]pyrazolo[1,5-a]pyridine-7-carbonitrile]
25.2 | C[C@@H]1CN(c2ccc(C#N)c3ncccc23)C[C@@H]2CCN(c3cnc(N4CCNCC4)nc3)CCN21 [Example 2, 5-[(4R,10aS)-4-methyl-8-(2-piperazin-1-ylpyrimidin-5-yl)-1,3,4,6,7,9,10,10a-octahydropyrazino[1,2-d][1,4]diazepin-2-yl]quinoline-8-carbonitrile]
< 3.2 | C[C@@H]1CN(c2ccc(C#N)c3ncccc23)C[C@@H]2CCN(c3ccc4c(n3)CCNC4)CCN21 [Example 6, 5-[(4R,10aS)-4-methyl-8-(5,6,7,8-tetrahydro-1,6-naphthyridin-2-yl)-1,3,4,6,7,9,10,10a-octahydropyrazino[1,2-d][1,4]diazepin-2-yl]quinoline-8-carbonitrile]
10.2 | C[C@@H]1CN(c2ccc(C#N)c3ncccc23)C[C@@H]2CCN(Cc3ccc(N4CCNCC4)cn3)CCN21 [Example 19, 5-[(4R,10aS)-4-methyl-8-[(5-piperazin-1-yl-2-pyridyl)methyl]-1,3,4,6,7,9,10,10a-octahydropyrazino[1,2-d][1,4]diazepin-2-yl]quinoline-8-carbonitrile]
61.7 | C[C@@H]1CN(c2ccc(C#N)c3ncccc23)C[C@@H]2CCN(c3ccc(N4CCNCC4)nc3)CCN21 [Example 1, 5-[(4R,10aS)-4-methyl-8-(6-piperazin-1-yl-3-pyridyl)-1,3,4,6,7,9,10,10a-octahydropyrazino [1,2-d][1,4]diazepin-2-yl]quinoline-8-carbonitrile]

Source: patent US12421240B2, “Hydropyrazino[1,2-d][1,4]diazepine compounds for the treatment of autoimmune disease” (Hoffmann-La Roche Inc., priority 2019, dated 2025)
